{
  "source": "ChEMBL document CHEMBL5518245",
  "about": "“Development of an Imidazopyridazine-Based MNK1/2 Inhibitor for the Treatment of Lymphoma” (J Med Chem, 2024)",
  "key": {"[1]": {"molecular_target": "Voltage-gated inwardly rectifying potassium channel KCNH2 (Homo sapiens, UniProt Q12809)", "sequence (Q12809 whole entry)": "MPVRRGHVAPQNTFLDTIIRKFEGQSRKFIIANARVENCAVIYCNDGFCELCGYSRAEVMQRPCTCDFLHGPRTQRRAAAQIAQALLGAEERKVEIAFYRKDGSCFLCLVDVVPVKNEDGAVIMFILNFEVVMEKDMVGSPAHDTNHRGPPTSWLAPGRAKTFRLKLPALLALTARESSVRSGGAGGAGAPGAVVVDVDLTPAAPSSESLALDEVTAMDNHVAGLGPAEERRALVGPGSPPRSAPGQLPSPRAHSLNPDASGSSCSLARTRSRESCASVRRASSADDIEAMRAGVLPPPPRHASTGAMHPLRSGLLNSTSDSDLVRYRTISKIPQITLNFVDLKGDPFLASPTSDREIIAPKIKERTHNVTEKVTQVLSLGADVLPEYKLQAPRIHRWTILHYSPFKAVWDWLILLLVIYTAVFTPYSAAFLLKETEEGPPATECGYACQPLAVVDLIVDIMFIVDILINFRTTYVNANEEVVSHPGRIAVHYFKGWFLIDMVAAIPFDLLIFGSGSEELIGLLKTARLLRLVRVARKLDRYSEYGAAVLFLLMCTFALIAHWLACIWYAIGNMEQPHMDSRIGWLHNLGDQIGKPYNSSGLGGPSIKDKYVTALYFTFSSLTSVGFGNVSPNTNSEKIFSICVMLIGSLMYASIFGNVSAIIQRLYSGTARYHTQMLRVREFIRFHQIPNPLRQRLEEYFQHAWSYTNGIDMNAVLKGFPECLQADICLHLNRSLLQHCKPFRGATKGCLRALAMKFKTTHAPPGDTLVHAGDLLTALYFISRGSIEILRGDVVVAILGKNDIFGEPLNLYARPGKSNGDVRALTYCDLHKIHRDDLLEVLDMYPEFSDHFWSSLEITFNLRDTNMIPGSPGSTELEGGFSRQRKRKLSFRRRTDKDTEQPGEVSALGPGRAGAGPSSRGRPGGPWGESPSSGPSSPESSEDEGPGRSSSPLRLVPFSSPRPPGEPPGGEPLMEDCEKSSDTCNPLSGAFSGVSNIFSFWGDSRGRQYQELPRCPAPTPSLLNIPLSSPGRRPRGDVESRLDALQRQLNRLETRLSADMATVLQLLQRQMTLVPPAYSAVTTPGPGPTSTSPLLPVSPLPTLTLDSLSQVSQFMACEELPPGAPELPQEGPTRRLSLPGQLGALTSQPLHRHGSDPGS"}, "[2]": {"tested_on": "LN-18", "assay": "Antiproliferative activity against human LN-18 cells assessed as inhibition of cell growth incubated for 72 hrs MTS assay", "type": "functional, cell-based", "settings": "LN-18, 72 h"}, "[3]": {"tested_on": "TMD8", "assay": "Antitumor activity against human TMD8 cells xenografted in mouse assessed as tumor growth inhibition at 10 mg/kg, po", "type": "functional", "settings": "read-out: TGI"}, "[4]": {"tested_on": "TMD8", "assay": "cells", "settings": "Homo sapiens, TMD8, 72 h"}, "[5]": {"tested_on": "DOHH-2", "assay": "cells", "settings": "Homo sapiens, DOHH-2, 72 h"}, "[6]": {"tested_on": "HT-29", "assay": "cells", "settings": "Homo sapiens, HT-29, 72 h"}, "[7]": {"tested_on": "PC-3", "assay": "cells", "settings": "Homo sapiens, PC-3, 72 h"}, "[8]": {"tested_on": "A549", "assay": "cells", "settings": "Homo sapiens, A549, 72 h"}, "[9]": {"tested_on": "PANC-1", "assay": "cells", "settings": "Homo sapiens, PANC-1, 72 h"}, "[10]": {"tested_on": "MDA-MB-231", "assay": "cells", "settings": "Homo sapiens, MDA-MB-231, 72 h"}, "[11]": {"assay": "in vitro", "settings": "human, liver microsomes"}, "[12]": {"assay": "in vitro", "settings": "dog, liver microsomes"}, "[13]": {"assay": "in vitro", "settings": "rat, liver microsomes"}},
  "data": [
    {"smiles": "O=C(c1ccc(-c2ccc3ncc(-c4cc5ccccc5o4)n3n2)cc1)N1CCOCC1", "values": [
      {"measurement": "IC50", "setting": "[1]", "value": "> 30", "unit": "µM"}
    ]},
    {"smiles": "N[C@@H]1CCCN(C(=O)c2ccc(-c3ccc4ncc(-c5cc6ccccc6o5)n4c3)cc2)C1", "values": [
      {"measurement": "IC50", "setting": "[1]", "value": 4.66, "unit": "µM"}
    ]},
    {"smiles": "Cc1cc(Nc2cc(N)ncn2)c(=O)n2c1C(=O)NC21CCCCC1", "note": "[TOMIVOSERTIB]", "values": [
      {"measurement": "IC50", "setting": "[2]", "value": 6.27, "unit": "µM"},
      {"measurement": "inhibition in vivo at 10 mg/kg", "setting": "[3]", "value": 75, "unit": "%"},
      {"measurement": "IC50", "setting": "[1]", "value": "> 30", "unit": "µM"},
      {"measurement": "IC50", "setting": "[4]", "value": "> 50", "unit": "µM"},
      {"measurement": "IC50", "setting": "[5]", "value": 6.3, "unit": "µM"},
      {"measurement": "IC50", "setting": "[6]", "value": "> 50", "unit": "µM"},
      {"measurement": "IC50", "setting": "[7]", "value": 29.4, "unit": "µM"},
      {"measurement": "IC50", "setting": "[8]", "value": "> 50", "unit": "µM"},
      {"measurement": "IC50", "setting": "[9]", "value": "> 50", "unit": "µM"},
      {"measurement": "IC50", "setting": "[10]", "value": 45, "unit": "µM"},
      {"measurement": "half-life", "setting": "[11]", "value": "> 120", "unit": "min"},
      {"measurement": "half-life", "setting": "[12]", "value": "> 120", "unit": "min"},
      {"measurement": "half-life", "setting": "[13]", "value": "> 120", "unit": "min"}
    ]},
    {"smiles": "O=C(c1ccc(-c2ccc3ncc(-c4cc5ccccc5o4)n3n2)cc1)N1CCC(N2CCCCC2)CC1", "values": [
      {"measurement": "IC50", "setting": "[1]", "value": "> 30", "unit": "µM"}
    ]},
    {"smiles": "CN(C)C1CCN(C(=O)c2ccc(-c3ccc4ncc(-c5cc6ccccc6o5)n4n3)cc2)CC1", "values": [
      {"measurement": "IC50", "setting": "[1]", "value": 2.97, "unit": "µM"}
    ]},
    {"smiles": "N#Cc1ccc(-c2cnc3ccc(-c4ccc(C(=O)N5CCOCC5)cc4)cn23)cc1", "note": "[TINODASERTIB]", "values": [
      {"measurement": "half-life", "setting": "[11]", "value": 67.1, "unit": "min"},
      {"measurement": "half-life", "setting": "[12]", "value": 83.5, "unit": "min"},
      {"measurement": "half-life", "setting": "[13]", "value": 18.1, "unit": "min"}
    ]},
    {"smiles": "CN(C)C1CCN(C(=O)c2ccc(-c3ccc4ncc(-c5cc6ccccc6o5)n4c3)cc2)CC1", "values": [
      {"measurement": "IC50", "setting": "[1]", "value": 1.03, "unit": "µM"}
    ]},
    {"smiles": "N[C@H]1CCCN(C(=O)c2ccc(-c3ccc4ncc(-c5cc6ccccc6o5)n4n3)cc2)C1", "values": [
      {"measurement": "IC50", "setting": "[1]", "value": "> 30", "unit": "µM"}
    ]},
    {"smiles": "NC1CCN(C(=O)c2ccc(-c3ccc4ncc(-c5cc6ccccc6o5)n4c3)cc2)CC1", "values": [
      {"measurement": "IC50", "setting": "[1]", "value": 4.4, "unit": "µM"}
    ]},
    {"smiles": "N[C@@H]1CCCN(C(=O)c2ccc(-c3ccc4ncc(-c5cc6ccccc6o5)n4n3)cc2)C1", "values": [
      {"measurement": "IC50", "setting": "[1]", "value": 5.82, "unit": "µM"}
    ]},
    {"smiles": "NC1CCN(C(=O)c2ccc(-c3ccc4ncc(-c5cc6ccccc6o5)n4n3)cc2)CC1", "values": [
      {"measurement": "IC50", "setting": "[1]", "value": 7.98, "unit": "µM"}
    ]}
  ]
}
